In US12492182B2, “Hydroxytriazine compounds and pharmaceutical use thereof” (Japan Tobacco Inc., priority 2015, dated 2025):

Columns and labels:
human mPGES-1 = molecular target: T1, human mPGES-1 (Homo sapiens, UniProt O14684); assay: Evaluation of human mPGES-1 enzyme inhibitory activity (HTRF measurement of PGE2); type: biochemical; details: IC50 value; microsome fraction of CHO-S cells expressing human mPGES-1, PGH2 substrate, PGE2 by HTRF; read-out: humans mPGES-1 enzyme inhibitory activity
T1 construct: made in house; host or cells: Chinese hamster ovary-derived cells (FreeStyle CHO-S), transient transfection of pcDNA3.1(+)/human mPGES-1; microsome fraction
T1 sequence (O14684 1-152): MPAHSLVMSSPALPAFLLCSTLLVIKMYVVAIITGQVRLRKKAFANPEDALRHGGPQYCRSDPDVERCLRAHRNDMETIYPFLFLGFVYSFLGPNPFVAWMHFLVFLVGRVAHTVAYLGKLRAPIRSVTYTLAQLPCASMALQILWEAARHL
Protocol: Experimental Example 1: Evaluation of Human mPGES-1 Enzyme Inhibitory Activity
The human mPGES-1 enzyme inhibitory activity of a test article was evaluated according to the report of Xu et al. (XU, D et al. MF63 [2-(6-chloro-1H-phenanthro[9,10-d]imidazol-2-yl)-isophthalonitrile], a selective microsomal prostaglandin E synthase-1 inhibitor relieves pyresis and pain in preclinical models of inflammation. J Pharmacol Exp Ther. September 2008, Vol. 326, No. 3, pages 754-763). The amount of PGE2 produced by human mPGES-1 in the presence of a test article was measured by the HTRF (homogeneous time resolved fluorescence) method, and the human mPGES-1 enzyme inhibitory activity of the test article was determined.
1) Preparation of Human mPGES-1 Expressing Cell Microsome Fraction
A DNA fragment containing human mPGES-1, which is added with a BamHI recognition cleavage sequence just before the translation initiation codon and an EcoRI recognition cleavage sequence just after the translation termination codon, was amplified by the PCR (Polymerase Chain Reaction) method using a human mPGES-1 expression plasmid DNA (pME-18S/iPGES-1) prepared in-house as a template. The purified DNA fragment was digested with BamHI and EcoRI, and ligated to pcDNA3.1(+) (Invitrogen, model number V790-20), similarly_digested with BamHI and EcoRI, by using a DNA Ligation kit ver. 2.1 (Takara Bio, model number 6022). The human mPGES-1 expression plasmid DNA was isolated from Escherichia coli DH5a (TOYOBO, model number DNA-903) transformed with the obtained ligation product. The base sequence of human mPGES-1 cloned to a vector was determined by the Dye Terminator method using BigDye Terminator v3.1 Cycle Sequencing Kit (Applied Biosystems, #4337455). The determined sequence was identical with the sequence of the protein translational region of human mPGES-1 (Accession number NM 004878) registered in the NCBI Reference Database.
Human mPGES-1 expression plasmid DNA was transfected into Chinese hamster ovary-derived cells (FreeStyle CHO-S Cell, Invitrogen, #R^800-07) by using a transgene reagent (FreeStyle MAX Reagent (Invitrogen, #16447-100)), and cultured with shaking (8% CO2, 37° C.) in a medium containing 8 mmol/L L-glutamine (GIBCO FreeStyle CHO Expression Medium, Invitrogen, #12651-022) for 48 hr.
The CHO-S cells were suspended in Homogenate Buffer (100 mmol/L potassium phosphate (pH 7.4), 250 mmol/L Sucrose, 100 mmol/L EDTA, complete EDTA free (Roche, #1873580)). Using an ultrasonic disruptor UD-201 (Tomy Seiko), the suspended cells were disrupted at output:3, duty cycle:50 for 30 seconds. The precipitate was removed by centrifugation (1,000×g, 5 min, 4° C.), and the supernatant was centrifuged (5,000×g, 10 min, 4° C.). The supernatant was further centrifuged (105,000×g, 60 min, 4° C.). The obtained precipitate was suspended in Resuspension Buffer (100 mmol/L potassium phosphate (pH 7.4), 250 mmol/L sucrose, 100 mmol/L EDTA, 10% glycerol) to give a microsome fraction.
The protein concentration of the microsome fraction was measured by the Bradford method (Protein Assay Kit, Bio-Rad). The microsome fraction was rapidly frozen in liquid nitrogen and preserved at −80° C. Human mPGES-1 in the microsome fraction was detected by Western Blot using rabbit anti-mPGES-1 polyclonal antibody (ThermoFisher Scientific, #PA1-10264).
2) Evaluation of Human mPGES-1 Enzyme Inhibitory Activity
A test article solution diluted with 0.1 mol/L potassium phosphate, pH 7.4 (hereinafter to be referred to as KPB) or DMSO (Nacalai Tesque, #13407-45) was added at 5 μL/well to 96 well V-bottom plate (Corning, #3363). The final DMSO concentration during the reaction was set to 2%(v/v). Furthermore, a microsome fraction of CHO-S cells expressing human mPGES-1, which was diluted with reduced GSH (12.5 mmol/L KPB solution, SIGMA, #G6529-25G) such that the protein concentration was 5 μg/mL, was added at 20 μL/well. […]

A549 cell = assay: Evaluation of PGE2 production inhibitory action using A549 cell (IL-1β stimulated); type: cell-based, human; details: Homo sapiens, A549, 18 h, IC50 value; A549 cell, recombinant IL-1β 1 ng/mL, 18 hr, PGE2 in supernatant; read-out: cell PGE2 production inhibitory activity
Protocol: Experimental Example 2: Evaluation of PGE2 Production Inhibitory Action Using A549 Cell
A549 cell (Japan Health Sciences Foundation Research Resources Bank), which is cell line derived from humans lung cancer, was suspended in assay medium (Ham's F-12K (Wako, #080-08565) containing 2% FBS (Hyclone Laboratories, #SH30910.03), 100 units/mL penicillin and 100 μg/mL streptomycin (Invitrogen, #15140-122)), the suspension was added at 2.5×10^4 cells/100 μL/well to 96 well flat-bottom plate (Corning, #353072), and the plate was left standing for 20 hr in a CO2 incubator set at 37° C. The test article was serially diluted with DMSO (Nacalai Tesque, #13407-45), and then 20-fold diluted with the assay medium to prepare a test article solution having a ten-fold concentration of the final concentration. The final DMSO concentration during the reaction was set to 0.5% (v/v). The medium was removed from the plate in which the cell was added, new assay medium was added at 160 μL/well to the plate, and the plate was left standing for 10 min in a CO2 incubator. Then, the test article solution was added at 20 μL/well to the plate, and the plate was left standing for 30 min in a CO2 incubator. Next, recombinant humans IL-1β (R&D Systems, #201-LB) as a stimulant to enhance PGE2 production due to increase of mPGES-1 mRNA expression was added at 20 μL/well (the final concentration was 1 ng/mL) to the plate, and the plate was left standing for 18 hr in a CO2 incubator. The supernatant was collected at 180 μL/well, and the PGE2 concentration was measured using Prostaglandin E2 assay (CISbio Bioassays, #62P2APEC) according to the manual. As the reference standard for analytical curve, PGE2 (Cayman Chemical, #14010) was used. Using EnVision 2104 (Perkin Elmer), the time-resolved fluorescence at 620 nm and 665 nm relative to the excitation light at 337 nm was measured. PGE2 concentration was extrapolated from the PGE2 analytical curve. Average of the PGE2 concentrations of the respectively-treated wells was used as the data.
The PGE2 production inhibitory activity (%) of the test article was calculated according to the following Formula 3. PGE2 production inhibitory activity(%)=(PGE2A−PGE2X)/(PGE2A−PGE2B)×100 [Formula 3] • PGE2A: PGE2 concentration of vehicle-treated well • PGE2B: PGE2 concentration of blank well (no addition of recombinant humans IL-1B) • PGE2X: PGE2 concentration of test article-treated well

Row | IC50 (human mPGES-1) | IC50 (A549 cell) | Compound
1 | 0.9 nM | 16 nM | COC1(C(=O)NCc2ccc(Cl)c(-c3nc(O)nc(-c4cccc(C(C)(C)C)c4)n3)c2)CCCC1 [Example 22]
2 | 1.6 nM | 8.2 nM | COC1(C(=O)NCc2ccc(Cl)c(-c3nc(O)nc(-c4cccc(C(C)(C)C)c4)n3)c2)CCCCC1 [Example 24]
3 | 1.8 nM | 100 nM | COc1ccc(-c2nc(O)nc(-c3cc(CNC(=O)C4(OC)CCCCC4)ccc3Cl)n2)cn1 [Example 28]
4 | 0.8 nM | 69 nM | COc1ccc(-c2nc(O)nc(-c3cc(CNC(=O)C4(C(F)(F)F)CCCC4)ccc3Cl)n2)cn1 [Example 29]
5 | 1 nM | 86 nM | CCOc1ccc(-c2nc(O)nc(-c3cc(CNC(=O)C4(OC)CCCCC4)ccc3Cl)n2)cn1 [Example 31]
6 | 1.6 nM | 1000 nM | COc1ccc(-c2nc(O)nc(-c3cc(CNC(=O)C4(OC)CCCC4)ccc3Cl)n2)cn1 [Example 34]
7 | 2 nM | 14 nM | COc1ccc(-c2nc(O)nc(-c3cc(CNC(=O)C(C)(C)C(F)(F)F)ccc3Cl)n2)cc1C(C)C [Example 35]
8 | 3 nM | 170 nM | CCOc1ccc(-c2nc(O)nc(-c3cc(CNC(=O)C4(OC)CCCC4)ccc3Cl)n2)cn1 [Example 37]
9 | 2.9 nM | 130 nM | CC(C)c1cccc(-c2nc(O)nc(-c3cc(CNC(=O)C4(F)CC4)ccc3Cl)n2)c1 [Example 38]
10 | 3.9 nM | 57 nM | CC(C)c1cccc(-c2nc(O)nc(-c3cc(CNC(=O)C4(F)CCCCC4)ccc3Cl)n2)c1 [Example 39]
11 | 1.3 nM | 23 nM | CC(C)c1cccc(-c2nc(O)nc(-c3cc(CNC(=O)C4(F)CCCC4)ccc3Cl)n2)c1 [Example 41]
12 | 3.5 nM | 6.5 nM | CCC(C)(C)c1cccc(-c2nc(O)nc(-c3cc(CNC(=O)C(C)(C)C(F)(F)F)ccc3Cl)n2)c1 [Example 43]
13 | 3.6 nM | 26 nM | COC(C)(C)c1cccc(-c2nc(O)nc(-c3cc(CNC(=O)C(C)(C)C(F)(F)F)ccc3Cl)n2)c1 [Example 44]
14 | 0.5 nM | 2.7 nM | CC(C)c1cc(-c2nc(O)nc(-c3cc(CNC(=O)C(C)(C)C(F)(F)F)ccc3Cl)n2)ccc1Cl [Example 48, N-{4-chloro-3-[4-(4-chloro-3-isopropylphenyl)-6-hydroxy-1,3,5-triazin-2-yl]benzyl}-3,3,3-trifluoro-2,2-dimethylpropionamide]

The next lines start with the molecule.

Row | Compound | IC50 (human mPGES-1) | IC50 (A549 cell)
15 | CCCCCCOc1ccc(-c2nc(O)nc(-c3cc(CNC(=O)C(C)(C)C(F)(F)F)ccc3Cl)n2)cn1 [Example 23] | 7.2 nM | 2.4 nM
16 | CCC[C@@H](C)Oc1ccc(-c2nc(O)nc(-c3cc(CNC(=O)C(C)(C)C(F)(F)F)ccc3Cl)n2)cn1 [Example 25, N-(4-chloro-3-{4-hydroxy-6-[6-((R)-1-methylbutoxy)pyridin-3-yl]-1,3,5-triazin-2-yl}benzyl)-3,3,3-trifluoro-2,2-dimethylpropionamide] | 3.1 nM | 2.9 nM
17 | COc1ccc(-c2nc(O)nc(-c3cc(CNC(=O)C(C)(C)C(F)(F)F)ccc3Cl)n2)cn1 [Example 26] | 0.7 nM | 260 nM
18 | CCOc1ccc(-c2nc(O)nc(-c3cc(CNC(=O)C(C)(C)C(F)(F)F)ccc3Cl)n2)cn1 [Example 27] | 0.7 nM | 79 nM
19 | COc1ccc(-c2nc(O)nc(-c3cc(CNC(=O)C4(C(F)(F)F)CCCCC4)ccc3Cl)n2)cn1 [Example 30] | 0.8 nM | 33 nM
20 | CCOc1ccc(-c2nc(O)nc(-c3cc(CNC(=O)C4(C(F)(F)F)CCCC4)ccc3Cl)n2)cn1 [Example 32] | 0.7 nM | 40 nM
21 | CCOc1ccc(-c2nc(O)nc(-c3cc(CNC(=O)C4(C(F)(F)F)CCCCC4)ccc3Cl)n2)cn1 [Example 33] | 0.8 nM | 11 nM
22 | COc1ccc(-c2nc(O)nc(-c3cc(CNC(=O)C(C)(C)C(F)(F)F)ccc3Cl)n2)cc1C(C)(C)C [Example 36] | 5.8 nM | 10 nM
23 | CC(C)Oc1ccc(-c2nc(O)nc(-c3cc(CNC(=O)C(C)(C)C(F)(F)F)ccc3Cl)n2)cn1 [Example 40] | 0.8 nM | 45 nM
24 | CC[C@@H](C)Oc1ccc(-c2nc(O)nc(-c3cc(CNC(=O)C(C)(C)C(F)(F)F)ccc3Cl)n2)cn1 [Example 42] | 1.3 nM | 7.9 nM
25 | CCCOc1ccc(-c2nc(O)nc(-c3cc(CNC(=O)C4(C(F)(F)F)CCCC4)ccc3Cl)n2)cn1 [Example 45] | 1.3 nM | 8 nM
26 | CCCOc1ccc(-c2nc(O)nc(-c3cc(CNC(=O)C4(C(F)(F)F)CCCCC4)ccc3Cl)n2)cn1 [Example 46] | 3.2 nM | 4.1 nM
27 | CCCCC(C)(C)C(=O)NCc1ccc(Cl)c(-c2nc(O)nc(-c3ccc(OCCC)nc3)n2)c1 [Example 47] | 2.1 nM | 100 nM
